Experimental data reported in PubChem BioAssay AID330 (DTP/NCI, 2004).
Where “and” joins values, the source holds several entries; their conditions need not be identical. Identical values can stand only once. Inconclusive results and toxic doses are left out. Rule for the calls: active = survival T/C of 150% or more; inactive = T/C below 125% in these data.

Test system: P388 leukemia ip, CD2F1 mice, survival T/C
Assay: NCI In Vivo Anticancer Drug Screen. Data for tumor model P388 Leukemia (intraperitoneal) in CD2F1 (CDF1) mice
Conditions: endpoint: median survival time, higher = longer survival
Procedure, shortened: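 Mice carrying the transplanted tumor received test compound or vehicle. Survival was recorded in each group, and the value is the treated-group measurement divided by that of the vehicle-treated control group.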

[1] = dose: 60.0 mg/kg/injection, schedule: Q01DX005 (ip), vehicle: saline with Tween-80
[2] = dose: 120.0 mg/kg/injection, schedule: Q01DX005 (ip), vehicle: saline with Tween-80
[3] = dose: 240.0 mg/kg/injection, schedule: Q01DX005 (ip), vehicle: saline with Tween-80
[4] = dose: 50.0 mg/kg/injection, schedule: Q01DX009 (ip), vehicle: Klucel (hydroxypropylcellulose) (HPC)
[5] = dose: 100.0 mg/kg/injection, schedule: Q01DX009 (ip), vehicle: Klucel (hydroxypropylcellulose) (HPC)
[6] = dose: 200.0 mg/kg/injection, schedule: Q01DX009 (ip), vehicle: Klucel (hydroxypropylcellulose) (HPC)
[7] = dose: 25.0 mg/kg/injection, schedule: Q01DX005 (ip), vehicle: saline
[8] = dose: 50.0 mg/kg/injection, schedule: Q01DX005 (ip), vehicle: saline
[9] = dose: 100.0 mg/kg/injection, schedule: Q01DX005 (ip), vehicle: saline
[10] = dose: 200.0 mg/kg/injection, schedule: Q01DX005 (ip), vehicle: saline
[11] = dose: 50.0 mg/kg/injection, schedule: Q01DX005 (ip), vehicle: saline with Tween-80
[12] = dose: 100.0 mg/kg/injection, schedule: Q01DX005 (ip), vehicle: saline with Tween-80
[13] = dose: 200.0 mg/kg/injection, schedule: Q01DX005 (ip), vehicle: saline with Tween-80
[14] = dose: 50.0 mg/kg/injection, schedule: Q01DX009 (ip), vehicle: saline with Tween-80
[15] = dose: 100.0 mg/kg/injection, schedule: Q01DX009 (ip), vehicle: saline with Tween-80
[16] = dose: 200.0 mg/kg/injection, schedule: Q01DX009 (ip), vehicle: saline with Tween-80
[17] = dose: 50.0 mg/kg/injection, schedule: Q01DX009 (ip), vehicle: saline
[18] = dose: 100.0 mg/kg/injection, schedule: Q01DX009 (ip), vehicle: saline
[19] = dose: 200.0 mg/kg/injection, schedule: Q01DX009 (ip), vehicle: saline
[20] = dose: 100.0 mg/kg/injection, schedule: Q04DX002 (ip), vehicle: saline with Tween-80
[21] = dose: 200.0 mg/kg/injection, schedule: Q04DX002 (ip), vehicle: saline with Tween-80
[22] = dose: 400.0 mg/kg/injection, schedule: Q04DX002 (ip), vehicle: saline with Tween-80
[23] = dose: 25.0 mg/kg/injection, schedule: Q01DX009 (ip), vehicle: saline with Tween-80
[24] = dose: 100.0 mg/kg/injection, schedule: Q01DX001 (ip), vehicle: saline
[25] = dose: 200.0 mg/kg/injection, schedule: Q01DX001 (ip), vehicle: saline
[26] = dose: 400.0 mg/kg/injection, schedule: Q01DX001 (ip), vehicle: saline

Measured: T/C

COc1cc(C(C)c2cc3c(cc2O)OCO3)cc(OC)c1OC (stereo not drawn)
inactive: dose: 15.0 mg/kg/injection, schedule: Q01DX005 (ip), vehicle: saline with Tween-80 100 % of control | dose: 30.0 mg/kg/injection, schedule: Q01DX005 (ip), vehicle: saline with Tween-80 98 % of control | [1] 103 % of control and 107 % of control and 108 % of control | [2] 100 % of control and 114 % of control and 122 % of control | [3] 123 % of control | dose: 480.0 mg/kg/injection, schedule: Q01DX005 (ip), vehicle: saline with Tween-80 86 % of control

Cc1ccc(C2C(C#N)C(=O)NC(=O)C2C#N)cc1 (stereo not drawn)
inactive: [4] 100 % of control | [5] 108 % of control | [6] 99 % of control

COc1ccc(-c2nn(-c3ccccc3)cc2Oc2ccccc2O)cc1
inactive: [1] 104 % of control | [2] 102 % of control | [3] 96 % of control

CC(C)C(N)C(=O)NC(C(=O)O)C(C)C (stereo not drawn)
inactive: dose: 6.25 mg/kg/injection, schedule: Q01DX005 (ip), vehicle: saline 95 % of control | dose: 12.5 mg/kg/injection, schedule: Q01DX005 (ip), vehicle: saline 95 % of control | [7] 96 % of control | [8] 98 % of control | [9] 88 % of control and 104 % of control | [10] 100 % of control

O=c1cc(O)c2ccc3ccccc3c2o1
inactive: [11] 89 % of control | [12] 87 % of control | [13] 92 % of control

CCC(=O)OCCN(CCOC(=O)CC)C(=O)C(C)OC(=O)CC (stereo not drawn)
inactive: [7] 105 % of control | [8] 110 % of control | [9] 105 % of control | [10] 110 % of control

O=C(O)Cn1nc([O-])[n+]2ccccc12
inactive: [14] 100 % of control | [15] 94 % of control | [16] 110 % of control

O=C(O)CC(NC(=O)CCl)c1cccs1 (stereo not drawn)
inactive: [17] 97 % of control | [18] 94 % of control | [19] 98 % of control

O=c1[nH]nc(SCc2ccccc2)c2nncn12
inactive: [11] 97 % of control | [12] 92 % of control | [13] 95 % of control

O=C(/C(O)=C/c1ccccc1)c1ccccc1
inactive: [20] 93 % of control | [21] 92 % of control | [22] 92 % of control

COc1ccc(/C=N/SC(c2ccccc2)(c2ccccc2)c2ccccc2)cc1
inactive: [20] 111 % of control | [21] 99 % of control | [22] 92 % of control

Oc1ccc(/C=N/NC(=S)NN2CCOCC2)nc1
inactive: dose: 3.12 mg/kg/injection, schedule: Q01DX009 (ip), vehicle: Klucel (hydroxypropylcellulose) (HPC) 110 % of control | dose: 6.25 mg/kg/injection, schedule: Q01DX009 (ip), vehicle: Klucel (hydroxypropylcellulose) (HPC) 109 % of control | dose: 12.5 mg/kg/injection, schedule: Q01DX009 (ip), vehicle: Klucel (hydroxypropylcellulose) (HPC) 104 % of control | dose: 25.0 mg/kg/injection, schedule: Q01DX009 (ip), vehicle: Klucel (hydroxypropylcellulose) (HPC) 111 % of control

CC1CC(N=Cc2ccc3c(c2)OCO3)CC(C)(C)C1 (stereo not drawn)
inactive: [11] 103 % of control | [12] 96 % of control | [13] 97 % of control

CCOC(=O)C(=CN(C)c1ccc(Cl)cc1)C(=O)OCC
inactive: dose: 6.25 mg/kg/injection, schedule: Q01DX009 (ip), vehicle: saline with Tween-80 102 % of control | dose: 12.5 mg/kg/injection, schedule: Q01DX009 (ip), vehicle: saline with Tween-80 94 % of control | [23] 103 % of control | [19] 97 % of control

CC1=CN(C(=O)c2ccccc2)C(C#N)N(C(=O)c2ccccc2)C1C#N (stereo not drawn)
inactive: dose: 60.0 mg/kg/injection, schedule: Q01DX005 (ip), vehicle: Klucel (hydroxypropylcellulose) (HPC) 100 % of control | dose: 120.0 mg/kg/injection, schedule: Q01DX005 (ip), vehicle: Klucel (hydroxypropylcellulose) (HPC) 103 % of control | dose: 240.0 mg/kg/injection, schedule: Q01DX005 (ip), vehicle: Klucel (hydroxypropylcellulose) (HPC) 102 % of control

Cn1c(=O)c2c(N=NC(N)=S)c(O)[nH]c2n(C)c1=O
inactive: dose: 100.0 mg/kg/injection, schedule: Q04DX003 (ip), vehicle: Klucel (hydroxypropylcellulose) (HPC) 100 % of control | dose: 200.0 mg/kg/injection, schedule: Q04DX003 (ip), vehicle: Klucel (hydroxypropylcellulose) (HPC) 108 % of control | dose: 400.0 mg/kg/injection, schedule: Q04DX003 (ip), vehicle: Klucel (hydroxypropylcellulose) (HPC) 96 % of control

CC(=O)n1ccc(=O)[nH]c1=O
inactive: [14] 87 % of control | [15] 96 % of control | dose: 100.0 mg/kg/injection, schedule: Q04DX003 (ip), vehicle: saline with Tween-80 100 % of control | [16] 96 % of control | dose: 200.0 mg/kg/injection, schedule: Q04DX003 (ip), vehicle: saline with Tween-80 96 % of control | dose: 400.0 mg/kg/injection, schedule: Q04DX003 (ip), vehicle: saline with Tween-80 96 % of control

CCOC(=O)C1=C(Nc2ccc([N+](=O)[O-])cc2)CCCC1
inactive: dose: 1.56 mg/kg/injection, schedule: Q01DX009 (ip), vehicle: saline 93 % of control | dose: 3.12 mg/kg/injection, schedule: Q01DX009 (ip), vehicle: saline 95 % of control | dose: 6.25 mg/kg/injection, schedule: Q01DX009 (ip), vehicle: saline 95 % of control

CN(CC[n+]1cccc(C(N)=O)c1)N=O
inactive: [24] 108 % of control | [25] 100 % of control | [26] 107 % of control

COC(=O)C#CC(N)=O
inactive: dose: 1.25 mg/kg/injection, schedule: Q01DX009 (ip), vehicle: saline sonified 113 % of control | dose: 1.65 mg/kg/injection, schedule: Q01DX009 (ip), vehicle: saline with Tween-80 118 % of control | dose: 2.5 mg/kg/injection, schedule: Q01DX009 (ip), vehicle: saline with Tween-80 118 % of control | dose: 3.75 mg/kg/injection, schedule: Q01DX009 (ip), vehicle: saline with Tween-80 118 % of control | dose: 5.0 mg/kg/injection, schedule: Q01DX009 (ip), vehicle: saline sonified 122 % of control

CC[N+](C)(CC)C1C(S(=O)(=O)c2ccccc2)CC1(C)C (stereo not drawn)
inactive: [7] 108 % of control | [8] 98 % of control | [9] 99 % of control

O=C1CC2(CCCCC2)CC(=O)N1c1ccc(O)c(CN2CCCCC2)c1
inactive: [4] 104 % of control | [5] 108 % of control | [6] 102 % of control

CCC(Oc1c2ccoc2c(OC)c2oc(=O)cc(O)c12)C(=O)O (stereo not drawn)
inactive: [11] 108 % of control | [12] 95 % of control | [13] 100 % of control

O=C(Oc1ccc[nH]c1=O)c1ccc([N+](=O)[O-])cc1
inactive: dose: 12.5 mg/kg/injection, schedule: Q01DX009 (ip), vehicle: saline 106 % of control and 110 % of control | dose: 25.0 mg/kg/injection, schedule: Q01DX009 (ip), vehicle: saline 101 % of control and 110 % of control | [17] 102 % of control and 103 % of control and 118 % of control | [18] 105 % of control and 118 % of control | [19] 100 % of control and 110 % of control and 91 % of control | dose: 400.0 mg/kg/injection, schedule: Q01DX009 (ip), vehicle: saline 101 % of control and 110 % of control

CC(=S)NC(=O)NC(=O)c1ccc(C)cc1
inactive: [24] 102 % of control and 104 % of control | [25] 112 % of control and 96 % of control | [26] 112 % of control and 97 % of control

N#CCc1ccc(N(CCO)CCO)cc1
inactive: dose: 12.5 mg/kg/injection, schedule: Q01DX005 (ip), vehicle: saline with Tween-80 102 % of control | dose: 25.0 mg/kg/injection, schedule: Q01DX005 (ip), vehicle: saline with Tween-80 101 % of control | [11] 101 % of control and 104 % of control

O=C(CCl)NC(Cc1ccccc1)C(=O)O (stereo not drawn)
inactive: [23] 99 % of control | [14] 99 % of control and 89 % of control | [15] 100 % of control and 104 % of control | [16] 94 % of control | dose: 400.0 mg/kg/injection, schedule: Q01DX009 (ip), vehicle: saline with Tween-80 103 % of control

CC1=C(C(=O)Nc2ccccc2)C(c2ccccc2)C(C(=O)Nc2ccccc2)=C(C)N1
inactive: [20] 95 % of control | [21] 94 % of control | [22] 94 % of control
